Laboratory results published in US10463644B2, “Uses of sesquiterpene lactone compounds and their derivatives in drugs preparation” (ACCENDATECH, priority 2013, dated 2019).
Where two headings read alike, the source gives them in different places.

Assays:
cancer cells = assay: Survival rate of cancer cells after test compound is added (flow cytometry, Annexin V-FITC/PI, clinical specimen); type: cell-based, patient; details: Homo sapiens, 18 h, read-out: Survival rate (%) All cells (Stem cells and ordinary cells)
Procedure, shortened: (§1)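 Survival was determined in clinical specimens after an 18 h compound treatment, using Annexin V-FITC/PI apoptosis staining and flow cytometry.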

[1] = tested on: PGE2 secreted by synoviocyte; assay: Content of PGE2 in culture supernatant of synoviocyte of RA model rats given test compound; type: in vivo; details: rat RA model, dose 30 mg/kg.2d; normal control 8.34 ± 1.29, NaCl 32.44 ± 10.32
Procedure, shortened: (§2)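 Test article is given to RA rats at 30 mg/kg.2d, and synoviocytes are isolated and cultured. Secreted TNF-α and PGE2 in the culture medium are measured by a shared protocol, while IL-1β release is measured by a different protocol. Comparison groups are saline (NaCl) and normal control rats.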

cancer stem cells = assay: Survival rate of cancer stem cells after test compound is added (flow cytometry, Annexin V-FITC/PI, clinical specimen); type: cell-based, patient; details: Homo sapiens, 18 h
Procedure, shortened: as §1

normal cells = assay: Survival rate of normal cells after test compound is added (flow cytometry, Annexin V-FITC/PI); type: cell-based; details: 18 h
Procedure, shortened: as §1

[2] = tested on: IL-1β secreted by synoviocyte; assay: Content of IL-1β in culture supernatant of synoviocyte of RA model rats given test compound; type: in vivo; details: rat RA model, dose 30 mg/kg.2d; normal control 0.16 ± 0.034, NaCl 0.49 ± 0.136
Procedure, shortened: as §2

[3] = Head and neck squamous cell carcinomas
[4] = read-out: Survival rate (%) All cells (Stem cells and ordinary cells)
[5] = read-out: Survival rate (%) Stem cells

Compound: C=C1C(=O)O[C@H]2[C@H]1CCC(C)=C1CC[C@@](C)(OC(=O)CCCc3cn(CCCCCCO)nn3)[C@@H]12 [Compound 21]
- viability at 10 µM (cancer cells; AML): 75%
- viability at 20 µM (cancer cells; AML): 56%
- viability at 10 µM (cancer cells; Brain glioma): 79%
- viability at 20 µM (cancer cells; Brain glioma): 68%
- viability at 10 µM (cancer cells; Brain tumor): 75%
- viability at 20 µM (cancer cells; Brain tumor): 62%
- viability at 10 µM (cancer cells; Breast cancer): 72%
- viability at 20 µM (cancer cells; Breast cancer): 66%
- viability at 10 µM (cancer cells; CLL): 63%
- viability at 20 µM (cancer cells; CLL): 62%
- viability at 10 µM (cancer cells; CML): 82%
- viability at 20 µM (cancer cells; CML): 69%
- viability at 10 µM (cancer cells; Children hepatoblastoma): 81%
- viability at 20 µM (cancer cells; Children hepatoblastoma): 66%
- viability at 10 µM (cancer cells; Colon adenocarcinoma): 71%
- viability at 20 µM (cancer cells; Colon adenocarcinoma): 56%
- viability at 10 µM (cancer cells; Colorectal cancer): 78%
- viability at 20 µM (cancer cells; Colorectal cancer): 67%
- viability at 10 µM (cancer cells; Gastric cancer): 67%
- viability at 20 µM (cancer cells; Gastric cancer): 55%
- viability at 10 µM (cancer cells; Gastrointestinal tumor): 75%
- viability at 20 µM (cancer cells; Gastrointestinal tumor): 58%
- viability at 10 µM (cancer cells; Glioma): 87%
- viability at 20 µM (cancer cells; Glioma): 78%
- viability at 10 µM (cancer cells; [3]): 86%
- viability at 20 µM (cancer cells; [3]): 82%
- viability at 10 µM (cancer cells; Laryngeal cancer): 73%
- viability at 20 µM (cancer cells; Laryngeal cancer): 61%
- viability at 10 µM (cancer cells; Liver cancer): 77%
- viability at 20 µM (cancer cells; Liver cancer): 61%
- viability at 10 µM (cancer cells; Lung adenocarcinoma): 67%
- viability at 20 µM (cancer cells; Lung adenocarcinoma): 64%
- viability at 10 µM (cancer cells; Lung cancer): 74%
- viability at 20 µM (cancer cells; Lung cancer): 68%
- viability at 10 µM (cancer cells; Malignant melanoma): 69%
- viability at 20 µM (cancer cells; Malignant melanoma): 56%
- viability at 10 µM (cancer cells; Nasopharynx cancer): 65%
- viability at 20 µM (cancer cells; Nasopharynx cancer): 56%
- viability at 10 µM (cancer cells; Ovarian cancer): 64%
- viability at 20 µM (cancer cells; Ovarian cancer): 57%
- viability at 10 µM (cancer cells; Pancreatic cancer): 66%
- viability at 20 µM (cancer cells; Pancreatic cancer): 62%
- viability at 10 µM (cancer cells; Prostate cancer): 77%
- viability at 20 µM (cancer cells; Prostate cancer): 65%
- viability at 10 µM (cancer cells; Retinoblastoma): 65%
- viability at 20 µM (cancer cells; Retinoblastoma): 59%
- viability at 10 µM (cancer cells; Skin cancer): 64%
- viability at 20 µM (cancer cells; Skin cancer): 57%
- Content of PGE2 in culture supernatant of synoviocyte (x ± s) [1]: 19.59 ± 3.25 ng/mL
- viability at 10 µM (cancer stem cells; AML): 66%
- viability at 20 µM (cancer stem cells; AML): 47%
- viability at 10 µM (cancer stem cells; Brain glioma): 68%
- viability at 20 µM (cancer stem cells; Brain glioma): 53%
- viability at 10 µM (cancer stem cells; Brain tumor): 65%
- viability at 20 µM (cancer stem cells; Brain tumor): 54%
- viability at 10 µM (cancer stem cells; Breast cancer): 62%
- viability at 20 µM (cancer stem cells; Breast cancer): 55%
- viability at 10 µM (cancer stem cells; CLL): 51%
- viability at 20 µM (cancer stem cells; CLL): 48%
- viability at 10 µM (cancer stem cells; CML): 75%
- viability at 20 µM (cancer stem cells; CML): 56%
- viability at 10 µM (cancer stem cells; Children hepatoblastoma): 74%
- viability at 20 µM (cancer stem cells; Children hepatoblastoma): 57%
- viability at 10 µM (cancer stem cells; Colon adenocarcinoma): 58%
- viability at 20 µM (cancer stem cells; Colon adenocarcinoma): 44%
- viability at 10 µM (cancer stem cells; Colorectal cancer): 73%
- viability at 20 µM (cancer stem cells; Colorectal cancer): 58%
- viability at 10 µM (cancer stem cells; Gastric cancer): 56%
- viability at 20 µM (cancer stem cells; Gastric cancer): 45%
- viability at 10 µM (cancer stem cells; Gastrointestinal tumor): 64%
- viability at 20 µM (cancer stem cells; Gastrointestinal tumor): 46%
- viability at 10 µM (cancer stem cells; Glioma): 78%
- viability at 20 µM (cancer stem cells; Glioma): 67%
- viability at 10 µM (cancer stem cells; [3]): 75%
- viability at 20 µM (cancer stem cells; [3]): 66%
- viability at 10 µM (cancer stem cells; Laryngeal cancer): 66%
- viability at 20 µM (cancer stem cells; Laryngeal cancer): 52%
- viability at 10 µM (cancer stem cells; Liver cancer): 64%
- viability at 20 µM (cancer stem cells; Liver cancer): 55%
- viability at 10 µM (cancer stem cells; Lung adenocarcinoma): 58%
- viability at 20 µM (cancer stem cells; Lung adenocarcinoma): 49%
- viability at 10 µM (cancer stem cells; Lung cancer): 63%
- viability at 20 µM (cancer stem cells; Lung cancer): 54%
- viability at 10 µM (cancer stem cells; Malignant melanoma): 59%
- viability at 20 µM (cancer stem cells; Malignant melanoma): 45%
- viability at 10 µM (cancer stem cells; Nasopharynx cancer): 55%
- viability at 20 µM (cancer stem cells; Nasopharynx cancer): 42%
- viability at 10 µM (cancer stem cells; Ovarian cancer): 56%
- viability at 20 µM (cancer stem cells; Ovarian cancer): 49%
- viability at 10 µM (cancer stem cells; Pancreatic cancer): 57%
- viability at 20 µM (cancer stem cells; Pancreatic cancer): 50%
- viability at 10 µM (cancer stem cells; Prostate cancer): 68%
- viability at 20 µM (cancer stem cells; Prostate cancer): 57%
- viability at 10 µM (cancer stem cells; Retinoblastoma): 56%
- viability at 20 µM (cancer stem cells; Retinoblastoma): 47%
- viability at 10 µM (cancer stem cells; Skin cancer): 56%
- viability at 20 µM (cancer stem cells; Skin cancer): 47%
- viability at 10 µM (normal cells; [4]): 95%
- viability at 10 µM (normal cells; [5]): 94%
- viability at 20 µM (normal cells; [4]): 94%
- viability at 20 µM (normal cells; [5]): 92%
- Content of IL-1β in culture supernatant of synoviocyte (x ± s) [2]: 0.36 ± 0.057 ng/mL
